From US20090029366A1 (priority 2007, published 2009)
pIC50: −log10 of the molar value. Read-outs that look alike come from different tables or passages of the source.

Key:
Type in all cases: cell-based
[1] = target: T1, human HCN1 (Homo sapiens, UniProt O60741); assay: Dose response of blockade of hyperpolarization (MPSD FLIPR), HCN1; settings: HEK-293 clone
T1 construct: expressed in transfected cells; host or cells: HEK-293H
T1 sequence (O60741 1-890): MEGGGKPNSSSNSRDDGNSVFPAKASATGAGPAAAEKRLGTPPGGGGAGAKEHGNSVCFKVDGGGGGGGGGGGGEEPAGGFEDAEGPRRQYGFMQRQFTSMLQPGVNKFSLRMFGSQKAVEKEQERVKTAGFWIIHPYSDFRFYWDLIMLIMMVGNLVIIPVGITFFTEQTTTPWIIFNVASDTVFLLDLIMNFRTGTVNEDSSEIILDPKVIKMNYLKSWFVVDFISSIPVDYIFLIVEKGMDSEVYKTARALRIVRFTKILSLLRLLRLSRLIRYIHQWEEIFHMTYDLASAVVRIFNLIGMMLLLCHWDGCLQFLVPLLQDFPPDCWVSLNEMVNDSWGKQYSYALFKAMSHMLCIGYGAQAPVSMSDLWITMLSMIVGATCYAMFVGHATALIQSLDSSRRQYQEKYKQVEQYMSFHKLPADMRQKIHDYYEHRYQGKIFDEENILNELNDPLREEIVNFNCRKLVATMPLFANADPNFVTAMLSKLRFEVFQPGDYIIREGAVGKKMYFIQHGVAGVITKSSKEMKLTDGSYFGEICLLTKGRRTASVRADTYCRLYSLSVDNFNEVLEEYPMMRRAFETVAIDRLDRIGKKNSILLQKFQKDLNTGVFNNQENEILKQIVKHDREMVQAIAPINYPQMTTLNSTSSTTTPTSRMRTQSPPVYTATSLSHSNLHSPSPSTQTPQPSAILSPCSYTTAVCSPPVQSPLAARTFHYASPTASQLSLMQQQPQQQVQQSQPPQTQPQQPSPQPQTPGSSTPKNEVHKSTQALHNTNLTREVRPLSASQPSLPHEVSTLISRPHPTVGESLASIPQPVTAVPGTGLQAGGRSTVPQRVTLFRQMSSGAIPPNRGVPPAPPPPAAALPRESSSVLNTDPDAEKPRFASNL
Protocol: HEK-293H cells stably expressing a human HCN1 channel were plated and incubated in HBSS essentially as described in Examples 3 and 5. CHO-K1 cells stably expressing a human HCN4 channel were plated and incubated in HBSS essentially as described in Example 6. Varying concentrations of ZD7288 were added to HBSS for each of the test wells to determine the dose response of cells expressing HCN1 or HCN4 channels. The percent inhibition of hyperpolarization was calculated for a single dose using the following equation:
The data were fit with a Hill equation as described by the ratio 1/(1+([test agent]/IC50)^k, where IC50 is the concentration of a test agent required to inhibit one-half of the maximum current and k is the Hill coefficient.
FIG. 10A depicts a typical dose response curve for a single HEK-293H HCN1 channel expressing clone in the presence of ZD7288. […] No statistical difference was found between the two means.

[2] = target: T1, human HCN1
[3] = target: T1, human HCN1; assay: MPSD FLIPR 96 well hyperpolarization assay, HCN1; set-up: blockade of hyperpolarization (change in fluorescence), FIG. 4 legend: dose or concentration left out as unconfirmed
Protocol: The above-described assay was modified for use with the FLIPR®^96 or FLEX^96 96 well plate format. In brief, cells stably expressing HCN channels were plated at 40-80×10^3 cells/plate in 100-150 μl/well of DMEM supplemented with 10% fetal bovine serum, 1× NEAA, and 1× penicillin/streptomycin. Cells were cultured for 24-48 hours in a 5% CO2/air humidifiedincubator at 37° C. Cells were incubated in 30 μl/well of HBSS containing MPSD, as described above, for 15-45 minutes at room temperature.
Membrane potentials were measured at room temperature (21°-23°) using a FLIPR® system or a FLEXSTATION® (Molecular Devices of Sunnydale, Calif.). Control cells were incubated in HBSS/MPSD without a test agent. For identification of HCN channel modulators, cells were incubated in HBSS/MPSD and the presence of a test agent as described in Examples 5 and 6 herein below.
HEK-293H cells stably expressing HCN1 or HCN3 channels were each plated at 40-80×10^3 cells/plate in a FLIPR®^96 well format in 100-150 μl/ well of DMEM supplemented with 10% fetal bovine serum and penicillin/streptomycin. The cells were cultured for 24-48 hours in a 5% CO2/air humidified incubatorat 37° C.
[…] Cells were incubated for 15 to 45 minutes. […] The change in fluorescence (ΔF) was measured for a total assay time of about 100 seconds. […]

CCN(c1ccccc1)c1cc(=NC)n(C)c(C)n1.Cl [ZD7288]
pIC50 ([1]; group 1, n=8, mean ± 0.2 μM, read-out: IC50 mean, group 1): 5.68 | pIC50 ([1]; group 2, n=12, mean ± 0.8 μM, read-out: IC50 mean, group 2): 5.54 | reversal of hyperpolarization induced by low sodium/potassium diluent [2]: reversed | blockade of hyperpolarization (change in fluorescence) ([3]; 50 μM ZD7288, HEK-293H HCN1, about 100 seconds): effectively blocked hyperpolarization | blockade of hyperpolarization (change in fluorescence), FIG. 4 legend ([3]; cells expressing HCN1): effectively blocked hyperpolarization
